The target of assay [1] is T1, DCAF15-RBM39 ternary complex (Homo sapiens, UniProt Q14498+Q66K64).
T1 construct: (RRM2)
In words: Compound-induced DCAF15-RBM39 ternary complex formation, AlphaLISA. Format: biochemical. As for the experimental part:
Compound-induced DCAF15-RBM39 ternary complex formation was monitored using AlphaLISA® assays (Perkin Elmer, Waltham, MA). […] 9.8 ul of this protein mixture was then mixed with the compounds in the assay plate and incubated for one hour at room temperature. Reaction mixtures with no compounds added were included as negative controls, while a His-tagged and biotinylated GST protein was included to track general assay performance. […] The beads were then added to the assay plate sequentially with incubation at room temperature for 1-2 hours after each addition.
(Alpha assays give light when donor and acceptor beads are brought close together.)

The target of assay [2] is DCAF15 (Homo sapiens, UniProt Q66K64). Briefly: Binary interaction between compounds and DCAF15, HTRF competition assay. The assay is classed as binding. On the procedure:
DCAF15 interactions with test compounds were monitored using HTRF competition assays (Cisbio, Bedford, MA). […] These two solutions were mixed and incubated for 15 min at room temperature. 9.8 ul of the tracer solution and 10 ul of the DCAF15/mAb Anti-6His-Eu cryptate Gold mixture were added sequentially to each well in the assay plate. Reaction mixtures with no DCAF15 added were included as […] controls. […] Binding was estimated based on ratiometric analysis and titration curves were generated in GraphPad Prism (7.00, GraphPad, La Jolla, CA).
Background: TR-FRET usually uses a lanthanide donor and a delayed reading to cut background.

Setting [3] is: AlphaLISA, His-tagged DCAF15 complex and biotin-carrying RBM39, read-out: Ternary-RBM39 (RRM2) EC50.
[4] abbreviates: HTRF competition with Alexa Fluor 647 tracer, His-tagged DCAF15 complex, read-out: DCAF15 IC50.

Where two headings read alike, the source gives them in different places.

T1 sequence (Q66K64 whole entry): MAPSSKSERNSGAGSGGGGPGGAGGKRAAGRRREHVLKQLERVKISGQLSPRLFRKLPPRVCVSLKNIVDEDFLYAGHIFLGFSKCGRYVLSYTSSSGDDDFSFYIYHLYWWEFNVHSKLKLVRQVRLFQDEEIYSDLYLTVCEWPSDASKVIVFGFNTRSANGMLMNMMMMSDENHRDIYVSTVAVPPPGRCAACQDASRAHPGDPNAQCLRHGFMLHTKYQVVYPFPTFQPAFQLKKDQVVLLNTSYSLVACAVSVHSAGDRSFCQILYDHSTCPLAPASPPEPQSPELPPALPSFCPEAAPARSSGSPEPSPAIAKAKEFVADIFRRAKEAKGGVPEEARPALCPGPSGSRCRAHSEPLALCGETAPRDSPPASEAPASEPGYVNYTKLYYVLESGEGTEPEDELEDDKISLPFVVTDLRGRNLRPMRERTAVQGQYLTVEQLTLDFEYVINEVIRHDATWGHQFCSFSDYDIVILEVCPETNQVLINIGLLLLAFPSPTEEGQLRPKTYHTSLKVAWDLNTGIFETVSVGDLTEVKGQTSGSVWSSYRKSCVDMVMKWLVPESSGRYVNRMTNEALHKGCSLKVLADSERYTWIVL
T1 sequence (Q14498 250-328 limits assumed): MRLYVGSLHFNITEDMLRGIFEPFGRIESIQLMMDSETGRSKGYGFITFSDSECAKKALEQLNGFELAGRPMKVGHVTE
T1 sequence (Q16531 whole entry partner): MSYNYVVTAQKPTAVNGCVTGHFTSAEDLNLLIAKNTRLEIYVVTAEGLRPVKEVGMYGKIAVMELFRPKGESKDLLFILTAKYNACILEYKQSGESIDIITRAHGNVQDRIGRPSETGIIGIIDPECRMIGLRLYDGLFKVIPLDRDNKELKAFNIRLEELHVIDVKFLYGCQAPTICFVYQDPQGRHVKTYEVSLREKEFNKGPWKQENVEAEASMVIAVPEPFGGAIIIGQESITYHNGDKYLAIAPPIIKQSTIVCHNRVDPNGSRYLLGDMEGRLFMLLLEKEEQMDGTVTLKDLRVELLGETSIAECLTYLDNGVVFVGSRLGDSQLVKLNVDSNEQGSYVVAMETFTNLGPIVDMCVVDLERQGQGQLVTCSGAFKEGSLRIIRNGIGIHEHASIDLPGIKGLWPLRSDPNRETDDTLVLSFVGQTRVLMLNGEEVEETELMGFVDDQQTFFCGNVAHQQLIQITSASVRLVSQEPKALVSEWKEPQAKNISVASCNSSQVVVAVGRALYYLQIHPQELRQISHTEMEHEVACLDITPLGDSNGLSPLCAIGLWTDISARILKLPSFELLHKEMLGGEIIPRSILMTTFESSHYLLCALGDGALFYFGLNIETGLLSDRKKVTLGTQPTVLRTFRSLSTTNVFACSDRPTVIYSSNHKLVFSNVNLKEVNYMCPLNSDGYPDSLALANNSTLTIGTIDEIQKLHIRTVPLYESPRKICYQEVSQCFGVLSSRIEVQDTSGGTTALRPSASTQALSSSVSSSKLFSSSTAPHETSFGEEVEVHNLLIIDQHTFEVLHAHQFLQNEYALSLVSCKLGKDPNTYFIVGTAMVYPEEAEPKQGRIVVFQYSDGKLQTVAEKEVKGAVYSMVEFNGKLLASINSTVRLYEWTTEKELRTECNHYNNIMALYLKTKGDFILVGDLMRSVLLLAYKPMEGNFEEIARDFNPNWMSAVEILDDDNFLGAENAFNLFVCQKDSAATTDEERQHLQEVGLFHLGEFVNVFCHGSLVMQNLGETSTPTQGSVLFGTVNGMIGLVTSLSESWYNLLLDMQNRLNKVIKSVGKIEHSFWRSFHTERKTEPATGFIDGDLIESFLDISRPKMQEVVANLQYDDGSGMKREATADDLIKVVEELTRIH
DCAF15, sequence (Q66K64 whole entry): as the sequence (Q66K64 whole entry) above
DCAF15, sequence (Q16531 whole entry partner): as the sequence (Q16531 whole entry partner) above

Usually EC50 stands for the concentration at which the effect is half-maximal. In general, IC50 refers to the concentration needed to halve the response being measured. As to `CCCN(C1CCNCC1)S(=O)(=O)c1ccc(S(=O)(=O)Nc2ccc(Cl)c3c(Cl)c[nH]c23)cc1` [Compound 30, N^1-(3,4-dichloro-1H-indol-7-yl)-N^4-(piperidin-4-yl)-N^4-propylbenzene-1,4-disulfonamide], the EC50 in assay [1] (setting [3]) was under 1 µM. The IC50 in assay [2] (setting [4]) is under 5 µM.
In the same order, the values of `CCN=S(=O)(c1ccc(S(=O)(=O)Nc2ccc(Cl)c3c(Cl)c[nH]c23)cc1)N1CCNCC1` (stereo not drawn) [Compound 69, N-(3,4-dichloro-1H-indol-7-yl)-4-(N-ethylpiperazine-1-sulfonimidoyl)benzenesulfonamide] are under 1 µM and under 100 µM.
Regarding `O=S(=O)(Nc1ccc(Cl)c2c(Cl)c[nH]c12)c1ccc(S(=O)(=O)N2CCC(Oc3cccnc3)CC2)cc1` [Compound 39, N-(3,4-dichloro-1H-indol-7-yl)-4-((4-(pyridin-3-yloxy)piperidin-1-yl)sulfonyl)benzene sulfonamide], the EC50 in assay [1] (setting [3]) was under 5 µM. In addition, the IC50 in assay [2] (setting [4]) was under 20 µM.
Turning to `CCc1nc(CN(C)S(=O)(=O)c2ccc(S(=O)(=O)Nc3ccc(Cl)c4c(Cl)c[nH]c34)cc2)no1` [Compound 20, N^1-(3,4-dichloro-1H-indol-7-yl)-N^4-((5-ethyl-1,2,4-oxadiazol-3-yl)methyl)-N4. methylbenzene-1,4-disulfonamide], the EC50 in assay [1] (setting [3]) was under 5 µM. Further, the IC50 in assay [2] (setting [4]) was under 5 µM.
Take `O=S(=O)(Nc1ccc(Cl)c2c(Cl)c[nH]c12)c1ccc(S(=O)(=O)N2CCNCC2)cc1F` [Compound 44, N-(3,4-dichloro-1H-indol-7-yl)-2-fluoro-4-(piperazin-1-ylsulfonyl)benzenesulfonamide]: the EC50 in assay [1] (setting [3]) was under 1 µM. In assay [2] (setting [4]), the IC50 was under 5 µM.
In the same order, the values of `Cc1cnc(CNS(=O)(=O)c2ccc(S(=O)(=O)Nc3ccc(Cl)c4c(Cl)c[nH]c34)cc2)cn1` [Compound 19, N^1-(3,4-dichloro-1H-indol-7-yl)-N4_ ((5-methylpyrazin-2-yl)methyl)benzene-1,4-disulfonamide] are under 1 µM and under 5 µM.
Turning to `CN1CCC(S(=O)(=O)c2ccc(S(=O)(=O)Nc3ccc(Cl)c4c(Cl)c[nH]c34)cc2)CC1` [Compound 58, N-(3,4-dichloro-1H-indol-7-yl)-4-((1-methylpiperidin-4-yl)sulfonyl)benzene sulfonamide], the EC50 in assay [1] (setting [3]) was under 1 µM. For the same compound, the IC50 in assay [2] (setting [4]) is under 5 µM.
`CC(C)(C)OC(=O)NC1(CNS(=O)(=O)c2ccc(S(=O)(=O)Nc3ccc(Cl)c4c(Cl)c[nH]c34)cc2)CC1` [Compound 9, tert-butyl (1-(((4-(N-(3,4-dichloro-1H-indol-7-yl)sulfamoyl)phenyl)sulfonamido)methyl)cyclopropyl) carbamate]: the EC50 in assay [1] (setting [3]) is under 20 µM. Moreover, in assay [2] (setting [4]), the IC50 was under 20 µM.
As to `CC(C)(C)OC(=O)N1CCC2(CC1)CN(S(=O)(=O)c1ccc(S(=O)(=O)Nc3ccc(Cl)c4c(Cl)c[nH]c34)cc1)CCO2` [Compound 55, tert-butyl 4-((4-(N-(3,4-dichloro-1H-indol-7-yl)sulfamoyl)phenyl)sulfonyl)-1-oxa-4,9-diazaspiro[5.5] undecane-9-carboxylate], the EC50 in assay [1] (setting [3]) is under 5 µM. Also, the IC50 in assay [2] (setting [4]) was under 20 µM.
Consider `Cc1ccc(CCNS(=O)(=O)c2ccc(S(=O)(=O)Nc3ccc(Cl)c4c(Cl)c[nH]c34)cc2)o1` [Compound 25, N^1-(3,4-dichloro-1H-indol-7-yl)-N4_ (2-(5-methylfuran-2-yl)ethyl)benzene-1,4-disulfonamide], for which the EC50 in assay [1] (setting [3]) was under 20 µM. The IC50 in assay [2] (setting [4]) is under 20 µM.
For the compound `O=S(=O)(Nc1ccc(Cl)c2c(Cl)c[nH]c12)c1ccc(S(=O)(=O)N2CCC(O)CC2)cc1` [Compound 38, N-(3,4-dichloro-1H-indol-7-yl)-4-((4-hydroxypiperidin-1-yl)sulfonyl)benzene sulfonamide], the EC50 in assay [1] (setting [3]) was under 1 µM. Further, in assay [2] (setting [4]), the IC50 is under 5 µM.
On to `CN(C)C(=O)CC(NS(=O)(=O)c1ccc(S(=O)(=O)Nc2ccc(Cl)c3c(Cl)c[nH]c23)cc1)c1ccccc1` (stereo not drawn) [Compound 11, 3-((4-(N-(3,4-dichloro-1H-indol-7-yl)sulfamoyl)phenyl)sulfonamido)-N,N-dimethyl-3-phenylpropanamide], for which the EC50 in assay [1] (setting [3]) was under 20 µM. In addition, the IC50 in assay [2] (setting [4]) is under 5 µM.
As to `O=S(=O)(Nc1ccc(Cl)c2c(Cl)c[nH]c12)c1ccc(S(=O)(=O)N2CCN(CCOCCc3ccccn3)CC2)cc1` [Compound 51, N-(3,4-dichloro-1H-indol-7-yl)-4-((4-(2-(2-(pyridin-2-yl)ethoxy)ethyl)piperazin-1-yl)sulfonyl)benzenesulfonamide], the concentration for a half-maximal effect (EC50) in assay [1] is under 1 µM. The compound further gave an IC50 in assay [2] of under 20 µM.
For `CN1CCC(S(=O)(=O)Nc2ccc(S(=O)(=O)Nc3ccc(Cl)c4c(Cl)c[nH]c34)cc2)CC1` [Compound 64, N-(4-(N-(3,4-dichloro-1H-indol-7-yl)sulfamoyl)phenyl)-1-methylpiperidine-4-sulfonamide], in assay [1] (setting [3]), the concentration giving a half-maximal response (EC50) was under 5 µM. Also, the IC50 in assay [2] (setting [4]) was under 100 µM.
As to `Cc1nc2c(n1C)CCN(S(=O)(=O)c1ccc(S(=O)(=O)Nc3ccc(Cl)c4c(Cl)c[nH]c34)cc1)C2` [Compound 53, N-(3,4-dichloro-1H-indol-7-yl)-4-((1,2-dimethyl-1,4,6,7-tetrahydro-5H-imidazo[4,5-c]pyridin-5-yl)sulfonyl)benzene sulfonamide], in assay [1] (setting [3]), the EC50 was under 5 µM. Further, the IC50 in assay [2] (setting [4]) was under 5 µM.
On to `Cc1ccnc(CNS(=O)(=O)c2ccc(S(=O)(=O)Nc3ccc(Cl)c4c(Cl)c[nH]c34)cc2)c1` [Compound 16, N^1-(3,4-dichloro-1H-indol-7-yl)-N^4-((4-methylpyridin-2-yl)methyl)benzene-1,4-disulfonamide], for which the EC50 in assay [1] (setting [3]) is under 20 µM. Besides, the IC50 in assay [2] (setting [4]) was under 5 µM.
For `CN1CC(CCNS(=O)(=O)c2ccc(S(=O)(=O)Nc3ccc(Cl)c4c(Cl)c[nH]c34)cc2)C1` [Compound 22, N^1-(3,4-dichloro-1H-indol-7-y1)-N^4-(2-(1-methylazetidin-3-yl)ethyl)benzene-1,4-disulfonamide], the EC50 in assay [1] (setting [3]) was under 1 µM. Besides, the IC50 in assay [2] (setting [4]) was under 5 µM.
Take `CN(C)C(=O)c1ccc(CCNS(=O)(=O)c2ccc(S(=O)(=O)Nc3ccc(Cl)c4c(Cl)c[nH]c34)cc2)cc1` [Compound 23, 4-(2-((4-(N-(3,4-dichloro-1H-indol-7-yl)sulfamoyl)pheny 1)sulfonamido)ethyl)-N,N-dimethylbenzamide]: the EC50 in assay [1] (setting [3]) was under 5 µM. In addition, in assay [2] (setting [4]), the 50% inhibitory concentration (IC50) is under 20 µM.
`Cc1ccnc(C(NS(=O)(=O)c2ccc(S(=O)(=O)Nc3ccc(Cl)c4c(Cl)c[nH]c34)cc2)C2CC2)c1` (stereo not drawn) [Compound 18, N^1-(cyclopropyl(4-methylpyridin-2-yl)methyl)-N^4-(3,4-dichloro-1H-indol-7-yl)benzene-1,4-disulfonamide]: the 50% effective concentration (EC50) in assay [1] (setting [3]) is under 5 µM. Also, the IC50 in assay [2] (setting [4]) was under 20 µM.
On to `O=S(=O)(Nc1ccc(Cl)c2c(Cl)c[nH]c12)c1ccc(C(F)(F)C2CCNCC2)cc1` [Compound 70, N-(3,4-dichloro-1H-indol-7-yl)-4-(difluoro(piperidin-4-yl)methyl)benzene sulfonamide], for which the EC50 in assay [1] (setting [3]) was under 1 µM. In addition, the IC50 in assay [2] (setting [4]) was under 5 µM.
As for `CCCN(c1ccc(S(=O)(=O)Nc2ccc(Cl)c3c(Cl)c[nH]c23)cc1)S(=O)(=O)N1CCNCC1` [Compound 67, N-(4-(N-(3,4-dichloro-1H-indol-7-yl)sulfamoyl)phenyl)-N-propylpiperazine-1-sulfonamide], the EC50 in assay [1] (setting [3]) was under 1 µM. Also, the IC50 in assay [2] (setting [4]) was under 5 µM.
On to `Cc1cc(CNS(=O)(=O)c2ccc(S(=O)(=O)Nc3ccc(Cl)c4c(Cl)c[nH]c34)cc2)nn1C` [Compound 15, N^1-(3,4-dichloro-1H-indol-7-y1)-N^4-((1,5-dimethyl-1H-pyrazol-3-yl)methyl)benzene-1,4-disulfonamide], for which the EC50 in assay [1] (setting [3]) is under 20 µM. The IC50 in assay [2] (setting [4]) was under 5 µM.
For the compound `CCN=S(=O)(c1ccc(S(=O)(=O)Nc2ccc(Cl)c3c(Cl)c[nH]c23)cc1)C1CCNCC1` (stereo not drawn) [Compound 68, N-(3,4-dichloro-1H-indol-7-yl)-4-(N-ethylpiperidine-4-sulfonimidoyl)benzenesulfonamide], in assay [1] (setting [3]), the EC50 was under 1 µM. Besides, the IC50 in assay [2] (setting [4]) was under 5 µM.
As to `CCCN(C(C)=O)c1ccc(S(=O)(=O)Nc2ccc(Cl)c3c(Cl)c[nH]c23)cc1` [Compound 71, N-(4-(N-(3,4-dichloro-1H-indol-7-yl)sulfamoyl)phenyl)-N-propylacetamide], the EC50 in assay [1] (setting [3]) was under 1 µM. In addition, the IC50 in assay [2] (setting [4]) is under 5 µM.
`CC1CN(S(=O)(=O)c2ccc(S(=O)(=O)Nc3ccc(Cl)c4c(Cl)c[nH]c34)cc2)CCN1` (stereo not drawn) [compound 109]: the EC50 in assay [1] (setting [3]) was under 1 µM. Besides, the concentration for half-maximal inhibition (IC50) in assay [2] (setting [4]) is under 5 µM.
Turning to `Cc1ccc(NS(=O)(=O)c2ccc(S(=O)(=O)N3CC4CNCC4C3)cc2)c2[nH]cc(C#N)c12` (stereo not drawn) [Compound 92, N-(3-cyano-4-methyl-1H-indol-7-yl)-4-((hexahydropyrrolo[3,4-c]pyrrol-2(1H)-yl)sulfonyl)benzenesulfonamide], the EC50 in assay [1] (setting [3]) is under 1 µM. In addition, in assay [2] (setting [4]), the IC50 was under 20 µM.
Consider `O=S(=O)(Nc1ccc(Cl)c2c(Cl)c[nH]c12)c1ccc(S(=O)(=O)N2CCNCC2)c(F)c1` [Compound 45, N-(3,4-dichloro-1H-indol-7-yl)-3-fluoro-4-(piperazin-1-ylsulfonyl)benzenesulfonamide], for which the EC50 in assay [1] (setting [3]) was under 1 µM. Moreover, in assay [2] (setting [4]), the IC50 is under 5 µM.

(Values after US20240190821A1, “SULFONAMIDE SUBSTITUTED N-(1H-INDOL-7-YL)BENZENESULFONAMIDES AND USES THEREOF” (Triana Biomedicines, Inc., priority 2021, published 2024).)
